Test results reported in ChEMBL document CHEMBL1201862, “PubChem BioAssay data set” (2004).
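Grown in 96-well plates, cells were treated for 48 hours with each compound at five concentrations. Insufficient inhibition: endpoint recorded as highest concentration tested. At the GI50, growth is halved.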 Calls of active or inactive are those of the source. No stated cut-off is given here; in the data, active = GI50 up to about 1.1 µM and inactive = higher.

Tests used:
Assay in all cases: NCI-60 cell line screen, 48 h
LOX IMVI = tested on: LOX IMVI
RXF 393 = tested on: RXF 393
SN12C = tested on: SN12C
SNB-78 = tested on: SNB-78
CAKI-1 = tested on: CAKI-1
MOLT-4 = tested on: MOLT-4
A549 = tested on: A549
IGROV-1 = tested on: IGROV-1
786-0 = tested on: 786-0
CCRF-CEM = tested on: CCRF-CEM
HL-60 = tested on: HL-60
K562 = tested on: K562
HCC 2998 = tested on: HCC 2998
U-251 = tested on: U-251
SF-295 = tested on: SF-295
OVCAR-4 = tested on: OVCAR-4
KM12 = tested on: KM12

Measured: GI50

O=C1C=C(O)c2nc(O)ccc2C1=O
inactive: LOX IMVI > 100 µM | RXF 393 > 100 µM | SN12C > 100 µM | SNB-78 > 100 µM | CAKI-1 > 100 µM | MOLT-4 > 100 µM | A549 > 100 µM | IGROV-1 > 100 µM | 786-0 > 100 µM | CCRF-CEM > 100 µM | HL-60 > 100 µM | K562 > 100 µM | HCC 2998 > 100 µM | U-251 > 100 µM | SF-295 > 100 µM | OVCAR-4 26.2 µM

Cc1cc(C)[n+]2c(c1)C=CC2.[O-][Cl+3]([O-])([O-])[O-]
inactive: LOX IMVI 17.1 µM | KM12 27.6 µM | RXF 393 2.89 µM | SN12C 31.2 µM | SNB-78 21.2 µM | CAKI-1 15.6 µM | A549 18.1 µM | 786-0 37.2 µM | HL-60 2.94 µM | HCC 2998 > 100 µM | U-251 29.7 µM | SF-295 25.1 µM | OVCAR-4 49.9 µM

COc1ccc(CC#C/C=C/C(=O)NCC(C)C)cc1
inactive: LOX IMVI > 100 µM | KM12 > 100 µM | RXF 393 40.3 µM | SN12C > 100 µM | SNB-78 > 100 µM | MOLT-4 > 100 µM | A549 > 100 µM | IGROV-1 > 100 µM | 786-0 > 100 µM | CCRF-CEM 74.1 µM | HL-60 29.5 µM | K562 79.3 µM | HCC 2998 > 100 µM | U-251 > 100 µM | SF-295 > 100 µM | OVCAR-4 > 100 µM

CC(=O)NCc1c(C(N)=O)ncn1Cc1ccccc1
inactive: LOX IMVI > 100 µM | RXF 393 > 100 µM | SN12C > 100 µM | SNB-78 > 100 µM | CAKI-1 > 100 µM | MOLT-4 > 100 µM | A549 > 100 µM | IGROV-1 > 100 µM | 786-0 > 100 µM | CCRF-CEM > 100 µM | HL-60 > 100 µM | K562 > 100 µM | HCC 2998 > 100 µM | U-251 > 100 µM | SF-295 > 100 µM | OVCAR-4 > 100 µM

CC(=O)OC1COC(N2C(=O)C(=O)c3ccccc32)C(OC(C)=O)C1OC(C)=O (stereo not given)
inactive: LOX IMVI > 100 µM | KM12 > 100 µM | RXF 393 > 100 µM | SN12C > 100 µM | SNB-78 > 100 µM | CAKI-1 > 100 µM | MOLT-4 > 100 µM | A549 > 100 µM | IGROV-1 > 100 µM | 786-0 > 100 µM | CCRF-CEM > 100 µM | K562 > 100 µM | HCC 2998 > 100 µM | U-251 > 100 µM | SF-295 > 100 µM | OVCAR-4 > 100 µM

CCCN(CCC)C1=Nc2ccccc2-n2cnnc2C1
inactive: LOX IMVI > 100 µM | KM12 > 100 µM | RXF 393 > 100 µM | SN12C > 100 µM | SNB-78 > 100 µM | MOLT-4 > 100 µM | A549 > 100 µM | IGROV-1 > 100 µM | 786-0 > 100 µM | CCRF-CEM > 100 µM | HL-60 > 100 µM | K562 > 100 µM | U-251 > 100 µM | SF-295 > 100 µM | OVCAR-4 > 100 µM

COc1ccc(C(c2c(O)c3ccccc3n(-c3ccccc3)c2=O)c2c(O)c3ccccc3n(-c3ccccc3)c2=O)cc1
inactive: LOX IMVI > 100 µM | KM12 > 100 µM | RXF 393 > 100 µM | SN12C > 100 µM | SNB-78 > 100 µM | CAKI-1 > 100 µM | MOLT-4 > 100 µM | A549 > 100 µM | 786-0 25.4 µM | CCRF-CEM > 100 µM | K562 > 100 µM | HCC 2998 > 100 µM | U-251 > 100 µM | OVCAR-4 > 100 µM

CC(=O)C1=C(C)NC2C=CC=CN12 (stereo not given)
inactive: LOX IMVI > 100 µM | KM12 > 100 µM | RXF 393 > 100 µM | SN12C > 100 µM | SNB-78 > 100 µM | CAKI-1 > 100 µM | MOLT-4 > 100 µM | A549 > 100 µM | IGROV-1 > 100 µM | 786-0 > 100 µM | CCRF-CEM > 100 µM | HL-60 > 100 µM | K562 > 100 µM | HCC 2998 > 100 µM | U-251 > 100 µM | SF-295 > 100 µM | OVCAR-4 > 100 µM

O=c1c2ccccc2oc2nccnc12
inactive: LOX IMVI > 100 µM | KM12 > 100 µM | RXF 393 > 100 µM | SN12C > 100 µM | SNB-78 > 100 µM | CAKI-1 > 100 µM | MOLT-4 > 100 µM | A549 > 100 µM | IGROV-1 > 100 µM | 786-0 > 100 µM | CCRF-CEM > 100 µM | K562 > 100 µM | HCC 2998 > 100 µM | U-251 > 100 µM | SF-295 > 100 µM | OVCAR-4 > 100 µM

COc1cc2c(cc1OC)C(C(CBr)CBr)N(C1CCCC1)CC2 (stereo not given)
inactive: LOX IMVI > 100 µM | KM12 > 100 µM | RXF 393 > 100 µM | SNB-78 > 10 µM | CAKI-1 > 100 µM | MOLT-4 > 100 µM | A549 > 100 µM | IGROV-1 > 100 µM | 786-0 > 100 µM | CCRF-CEM > 100 µM | HL-60 > 100 µM | K562 > 100 µM | HCC 2998 > 100 µM | U-251 > 100 µM | SF-295 > 100 µM | OVCAR-4 > 100 µM

COC(=O)N/N=C/c1oc(-c2ccccc2)c(-c2ccccc2)c1[N+](=O)[O-]
inactive: LOX IMVI > 100 µM | KM12 > 100 µM | RXF 393 > 100 µM | SN12C > 100 µM | SNB-78 > 100 µM | CAKI-1 > 100 µM | MOLT-4 > 100 µM | A549 > 100 µM | IGROV-1 > 100 µM | 786-0 > 100 µM | HL-60 > 100 µM | K562 > 100 µM | HCC 2998 > 100 µM | U-251 > 100 µM | SF-295 > 100 µM | OVCAR-4 > 100 µM

C[N+](C)(C)CC1CCCCC1O (stereo not given)
inactive: LOX IMVI > 100 µM | RXF 393 > 100 µM | SN12C > 100 µM | SNB-78 > 100 µM | CAKI-1 > 100 µM | MOLT-4 > 100 µM | IGROV-1 > 100 µM | 786-0 > 100 µM | CCRF-CEM > 100 µM | HCC 2998 > 100 µM | U-251 > 100 µM | SF-295 > 100 µM | OVCAR-4 > 100 µM

CCCC(C)NC1=C(NC(C)=O)C(=O)c2ccccc2C1=O (stereo not given)
inactive: LOX IMVI > 100 µM | KM12 > 100 µM | RXF 393 > 100 µM | SN12C > 100 µM | SNB-78 > 100 µM | MOLT-4 > 100 µM | A549 > 100 µM | IGROV-1 > 100 µM | 786-0 > 100 µM | CCRF-CEM > 100 µM | HL-60 97.3 µM | K562 > 100 µM | HCC 2998 > 100 µM | U-251 > 100 µM | SF-295 > 100 µM | OVCAR-4 > 100 µM
